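Interpolation was linear, between the two tested concentrations surrounding the appropriate level; five concentrations were tested over 48 hours in 96-well plates. Abbreviation: GI50, concentration required for 50% inhibition of growth. At the TGI there is no net growth.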 Where only a bound is given, the exact number is not on record here.

Test systems include DU-145 prostate; HOP-62 NSCLC; KM12 colon; MDA-MB-231 breast; SF-539 CNS; SK-MEL-5 melanoma; UACC-62 melanoma; UO-31 renal.
Holding throughout (assay): NCI anticancer screen, dose series, 48 h

As to `CN1CCC(n2[nH]c(-c3ccccc3)c(Cc3ccccc3)c2=O)CC1`, the TGI with DU-145 prostate, in the assay with HOP-62 NSCLC, in the assay with KM12 colon, with MDA-MB-231 breast, in the assay with SF-539 CNS and with SK-MEL-5 melanoma was more than 100 µM throughout. Besides, the TGI in the assay with UACC-62 melanoma and with UO-31 renal was more than 100 µM throughout.
For `Cc1ccc(F)cc1NC(=O)c1cc(Cl)ccc1Nc1ccccc1`, the GI50 is more than 100 µM in the assay with DU-145 prostate; 79 µM in the assay on HOP-62 NSCLC; more than 100 µM in the assay on KM12 colon; 6.96 µM in the assay with MDA-MB-231 breast; 40.7 µM in the assay with SF-539 CNS; more than 100 µM in the assay with SK-MEL-5 melanoma. For the same molecule, the GI50 with UACC-62 melanoma and with UO-31 renal was more than 100 µM throughout. The TGI in the assay on DU-145 prostate, in the assay with HOP-62 NSCLC, in the assay with KM12 colon, in the assay on MDA-MB-231 breast, in the assay on SF-539 CNS and in the assay on SK-MEL-5 melanoma was more than 100 µM in each case. Also, the TGI with UACC-62 melanoma and with UO-31 renal was more than 100 µM in each case.
On to `O=[N+]([O-])c1cccc(-c2cc(-c3cc(Br)ccc3O)[nH]n2)c1`, for which the GI50 in the assay on DU-145 prostate was 3.44 µM; in the assay on KM12 colon, 2.13 µM; in the assay on MDA-MB-231 breast, 2.49 µM; with SF-539 CNS it was 2.89 µM; in the assay on SK-MEL-5 melanoma it was 1.61 µM; with UACC-62 melanoma, 2.63 µM. Also, the GI50 with UO-31 renal is 2.34 µM. The TGI in the assay on DU-145 prostate is 12.3 µM; with KM12 colon, 6 µM; with MDA-MB-231 breast it was 9.87 µM; in the assay on SF-539 CNS it was 11 µM; in the assay with SK-MEL-5 melanoma, 3.35 µM; in the assay on UACC-62 melanoma, 11.7 µM. This molecule had a TGI in the assay on UO-31 renal of 9.38 µM.
On to `COc1ccc(C(=O)CC(c2ccc(OC)c(OC)c2)c2c(O)c3ccccc3oc2=O)cc1OC` (centres undefined), for which the TGI with DU-145 prostate, with HOP-62 NSCLC, in the assay with KM12 colon, in the assay on MDA-MB-231 breast, with SF-539 CNS and in the assay on SK-MEL-5 melanoma was more than 100 µM throughout. The TGI in the assay with UACC-62 melanoma and in the assay with UO-31 renal was more than 100 µM throughout.
Regarding `COc1ccc2c(c1)[C@@]1(C)CCC3c4ccc(O)cc4CCC3C1C2` (some centres undefined), the GI50 with DU-145 prostate is 17.6 µM; in the assay with HOP-62 NSCLC, 22.5 µM; in the assay with KM12 colon, 15.4 µM; with MDA-MB-231 breast it was 13.8 µM; in the assay with SF-539 CNS it was 20.3 µM; in the assay with SK-MEL-5 melanoma, 17 µM. In addition, the GI50 was 17.6 µM in the assay on UACC-62 melanoma and 12.8 µM in the assay with UO-31 renal. Also, the TGI came out at 39.7 µM in the assay on DU-145 prostate; 37.2 µM in the assay with HOP-62 NSCLC; 36.8 µM in the assay on KM12 colon; 27.8 µM with MDA-MB-231 breast; 38.9 µM in the assay with SF-539 CNS; 33.1 µM with SK-MEL-5 melanoma. For the same molecule, the TGI came out at 32.9 µM in the assay on UACC-62 melanoma and 30.9 µM in the assay with UO-31 renal.
Regarding `COc1ccc(-c2cc(-c3nnc(SCC(=O)Nc4ccc(C(C)=O)cc4)o3)c3ccccc3n2)cc1`, the GI50 is more than 100 µM in the assay with DU-145 prostate; 15.7 µM with HOP-62 NSCLC; more than 100 µM in the assay on KM12 colon; 19.4 µM with MDA-MB-231 breast; 33.9 µM in the assay with SF-539 CNS; more than 100 µM in the assay on SK-MEL-5 melanoma. The GI50 in the assay with UACC-62 melanoma is 27.1 µM; in the assay on UO-31 renal, more than 100 µM. The TGI in the assay on DU-145 prostate is more than 100 µM; in the assay with HOP-62 NSCLC, 58.6 µM; in the assay on KM12 colon it was more than 100 µM; with MDA-MB-231 breast it was more than 100 µM; in the assay with SF-539 CNS it was more than 100 µM; in the assay with SK-MEL-5 melanoma it was more than 100 µM. In addition, the TGI with UACC-62 melanoma and in the assay with UO-31 renal was more than 100 µM in each case.
For the molecule `CC[C@@]1(O)C(=O)OCc2c1cc1n(c2=O)Cc2cc3c(NC(=O)CN)cccc3nc2-1`, the TGI in the assay with DU-145 prostate was 1.98 µM; in the assay with HOP-62 NSCLC, 9.22 µM; in the assay with KM12 colon it was 34.6 µM; with MDA-MB-231 breast, more than 73 µM; in the assay with SK-MEL-5 melanoma, 2.32 µM; with UACC-62 melanoma, 7.42 µM. This molecule also had a TGI in the assay with UO-31 renal of 3.55 µM.
As for `COc1ccc(-n2c3c(c4c(CN(C)C)c(O)c(C)cc42)CCc2ccccc2C3=O)cc1`, the GI50 with DU-145 prostate is 21.4 µM; in the assay on HOP-62 NSCLC it was 40.8 µM; in the assay on KM12 colon it was 21.1 µM; with MDA-MB-231 breast, 25 µM; with SF-539 CNS, 26.9 µM; in the assay with SK-MEL-5 melanoma it was 21.5 µM. In addition, the results for the GI50 in the assay with UACC-62 melanoma and in the assay with UO-31 renal were 30.6 µM and 45.9 µM, respectively. The TGI in the assay with DU-145 prostate was more than 100 µM; with HOP-62 NSCLC, more than 100 µM; in the assay with KM12 colon, 63.9 µM; in the assay on MDA-MB-231 breast, 90.1 µM; in the assay with SF-539 CNS it was more than 100 µM; in the assay with SK-MEL-5 melanoma, 68.8 µM. The TGI in the assay on UACC-62 melanoma and with UO-31 renal was more than 100 µM throughout.
For the molecule `COc1cc(OC)cc(-c2cncn2-c2ccc(-c3nc4cc(OC)cc(OC)c4s3)cc2)c1`, the GI50 is more than 100 µM in the assay with DU-145 prostate; 6.65 µM with HOP-62 NSCLC; 4.52 µM in the assay with KM12 colon; 9.01 µM in the assay with MDA-MB-231 breast; 5.76 µM in the assay with SF-539 CNS; 3.29 µM with SK-MEL-5 melanoma. In addition, in the assay with UACC-62 melanoma, the GI50 is 4.75 µM. Also, the TGI in the assay on DU-145 prostate is more than 100 µM; with HOP-62 NSCLC, 34.5 µM; with KM12 colon, more than 100 µM; in the assay on MDA-MB-231 breast, more than 100 µM; with SF-539 CNS, more than 100 µM; with SK-MEL-5 melanoma, more than 100 µM. Further, in the assay with UACC-62 melanoma, the TGI is more than 100 µM.
`O=C(NC1(C(=O)O)CC1c1ccccc1)c1ccccc1` (centres undefined): the TGI in the assay on DU-145 prostate, in the assay with HOP-62 NSCLC, in the assay on KM12 colon, in the assay on MDA-MB-231 breast, in the assay on SF-539 CNS and in the assay on UACC-62 melanoma was more than 100 µM each time. In the assay with UO-31 renal, this molecule gave a TGI of more than 100 µM.
With `CN(C)S(=O)(=O)c1ccc(Nc2ccc(O)c3c2C(=O)c2c([N+](=O)[O-])ccc(O)c2C3=O)cc1`, the TGI in the assay on DU-145 prostate, with HOP-62 NSCLC, with KM12 colon, in the assay on MDA-MB-231 breast, with SK-MEL-5 melanoma and in the assay on UACC-62 melanoma was more than 100 µM throughout. In the assay on UO-31 renal, this molecule showed a TGI of more than 100 µM.

(Values after PubChem BioAssay (NCI).)
